Test results from patent publication US9426996B2, “Use of benzoxaboroles as volatile antimicrobial agents on meats, plants, or plant parts” (AgroFresh Inc., priority 2013, dated 2016).

Tests used:
Botrytis cinerea [1] = experiment: in vivo dose by time volatile bioassay using strawberry; settings: for Incidence (%) / Severity (0 to 3): strawberries
Experimental: In order to assess the in vivo dose by time activity of volatile antimicrobial compounds, a volatile bioassay is developed using strawberry. Two fruit are placed inside a 240 mL jar, with the calyx facing downwards. […] Whatman filter paper (Cat. No. 1822-024) is placed inside duplicate jar lids. Compound A (benzoxaborole; FIG. 1) is diluted in acetone, and the appropriate amount of compound is added to the disks at two rates 0.008 or 0.125 mg. The acetone is permitted to evaporate for 5 minutes. The jars are capped with the lids containing the fungicide, and incubated with the volatile fungicide for 1, 3, 6, 24 or 72 hours. After incubation, lids containing the disk with Compound A are replaced with new lids without Compound A. All samples are maintained at 21° C. for 3 days, and then the lids are removed and maintained for an additional 48 hours, all at 90% relative humidity (R.H.). The fruit are evaluated for incidence and severity of disease and appearance of phytotoxicity.

[2] = test system: Pectobacterium carotovorum; experiment: in vitro volatile assay, minimum bactericidal concentration (Example 11); assay type: cell-based; settings: headspace concentration; 23° C. for 48 hours
Experimental: (§1) 12-Well (6.5 mL volume per well) microtiter plates are used for the in vitro inhibition assay for volatile antimicrobial Compound A (FIG. 1) against numerous bacterial pathogens. A 3-mL volume of Nutrient agar is added to each well and allowed to dry before introducing the pathogen. Escherichia coli, Pectobacterium carotovorum, Xanthomonas axonopodis and Salmonella enterica cell suspensions are adjusted to an optical density of 0.2 to 0.35, and further diluted 1/10, and 15 μL is pipetted to the center of each well and tilted to distribute uniformly. A Whatman #1 filter paper (CAT 1001-0155) is placed on the underside of a polyethylene PCR plate sealing film. […] The films with the treated disks are then applied over the inoculated plates and sealed. Plates are inverted, and incubated at 23° C. for 48 hours. After the incubation period, the bacteria colonies are dislodged in sterile water containing tween 80 (0.001%) and the optical density (OD; 600 nm) is determined Results are summarized in Table 10, where the headspace concentration required to control at least 80% of bacterial growth is reported.

Xanthomonas axonopodis = experiment: as above; assay type: cell-based; settings: headspace concentration; 23° C. for 48 hours
Experimental: as §1

Botrytis cinerea [3] = experiment: in vitro inhibition assay for volatile antimicrobial compounds (12-well PDA plates); assay type: cell-based; settings: in vitro; volatile; 14 days at 4° C.
Experimental: 12-Well (7 milliliter (mL volume per well) microtiter plates are used for the in vitro inhibition assay for volatile antimicrobial compounds. A 3-mL volume of full-strength Potato Dextrose Agar (PDA) is added to each well. After cooling, 1 microliter (μL) of 1×10^6 per mL Botrytis cinerea spore suspension is spot pipetted to the center of the agar. For the first experiment, inoculated plates are allowed to germinate for 5 days at 4° C. For the second experiment, plates are inoculated immediately prior to volatile fungicide treatment. Small Whatman #1 filter disks (Cat. No. 1001-0155) are placed, in duplicate, on the underside of a polyethylene PCR plate sealing film.
The acetone is permitted to evaporate for 5 minutes. The headspace around the Botrytis cinerea inoculum is then sealed inside the well by the film with the adhering disk containing the fungicide. Plates are inverted, placed over the treated disks and sealed to prevent any of the chemical from flaking from the disk and falling onto the inoculated agar. After 14 days of storage at 4° C., cultures are evaluated for percent growth relative to control. Regardless of whether the spores had germinated for 5 days, or if the treatment commenced soon after inoculation of the plates (˜15 minutes); there is 100% control of the fungal pathogen down to 0.005 mg.
A total of 14 antimicrobial compounds are tested using the in vitro inhibition assay described in Example 1. All 14 compounds are applied to the Whatman disks, in duplicate, in a dose dependent manner (0.31 to 0.0006 mg/disk). […] Other compounds, such as Compound C, Compound D, and Compound E conferred 100% control down to 0.023, 0.04, and 0.08 mg/disk, respectively. Results of nine compounds are summarized in Table 2, where the other five compounds show no detected activity in the ranges tested. […]

Botrytis cinerea [4] = experiment: white carnations with natural inoculum, fog or passive volatile treatment; assay type: in vivo; settings: 8 days of shelf-life
Experimental: A similar test like the one described above is also performed on white carnations (treated with or without the commercial anti-ethylene compound silver thiosulfate; STS) with natural inoculum. Compound A is either dissolved in an aqueous 1,2-propylene glycol solution (3:1) and 5 mL of the solution volatilized using an ES-100-H SmartFog system (Reno, Nev.) through a ½″ side port that is sealed immediately after the application, or dissolved in acetone and applied to a 42.5 millimeter (mm) Whatman #1 filter disk (Cat. No. 1001-042), and placed on a watch glass after allowing the acetone to evaporate for 5 minutes. The flowers are incubated for 3 days at 21° C. After storage, the flowers are evaluated for an additional 8 days for disease severity based on the number of lesions present on flower petals and sepals.

OB1OCc2cc(F)ccc21 [Compound A]
Incidence (%) (Botrytis cinerea [1]; 0.008 mg/disk, Time 3 h): 0%
Severity (0 to 3) (Botrytis cinerea [1]; 0.008 mg/disk, Time 3 h): 0.0
Incidence (%) (Botrytis cinerea [1]; 0.008 mg/disk, Time 6 h): 33%
Severity (0 to 3) (Botrytis cinerea [1]; 0.008 mg/disk, Time 6 h): 1.0
Incidence (%) (Botrytis cinerea [1]; 0.008 mg/disk, Time 24 h): 67%
Severity (0 to 3) (Botrytis cinerea [1]; 0.008 mg/disk, Time 24 h): 2.3
Incidence (%) (Botrytis cinerea [1]; 0.008 mg/disk, Time 72 h): 33%
Severity (0 to 3) (Botrytis cinerea [1]; 0.008 mg/disk, Time 72 h): 1.0
Incidence (%) (Botrytis cinerea [1]; 0.125 mg/disk, Time 1 h): 67%
Severity (0 to 3) (Botrytis cinerea [1]; 0.125 mg/disk, Time 1 h): 2.3
Incidence (%) (Botrytis cinerea [1]; 0.125 mg/disk, Time 3 h): 33%
Severity (0 to 3) (Botrytis cinerea [1]; 0.125 mg/disk, Time 3 h): 1.3
Incidence (%) (Botrytis cinerea [1]; 0.125 mg/disk, Time 6 h): 0%
Severity (0 to 3) (Botrytis cinerea [1]; 0.125 mg/disk, Time 6 h): 0.0
Incidence (%) (Botrytis cinerea [1]; 0.125 mg/disk, Time 24 h): 0%
Severity (0 to 3) (Botrytis cinerea [1]; 0.125 mg/disk, Time 24 h): 0.0
Incidence (%) (Botrytis cinerea [1]; 0.125 mg/disk, Time 72 h): 0%
Severity (0 to 3) (Botrytis cinerea [1]; 0.125 mg/disk, Time 72 h): 0.0
control of Botrytis cinerea (Botrytis cinerea [1]; strawberry, 0.125 mg/disk, after 6 hour exposure): 100%
appearance of phytotoxicity (Botrytis cinerea [1]; strawberry, 0.008 or 0.125 mg): no evidence of phytotoxicity
Rate (mg/L) offering at least 80% control, P. carotovorum [2]: 2.2 mg/L
Rate (mg/L) offering at least 80% control, X. axonopodis (Xanthomonas axonopodis): 4.5 mg/L
lowest rate with 100% control of Botrytis cinerea (Botrytis cinerea [3]): 0.005 mg/disk
Severity (Average Number of Lesions) (Botrytis cinerea [4]; Petals, 0.04 mg/L, Non-STS, Fog): 0.4
Severity (Average Number of Lesions) (Botrytis cinerea [4]; Petals, 0.04 mg/L, Non-STS, Volatile): 3.1
Severity (Average Number of Lesions) (Botrytis cinerea [4]; Petals, 0.04 mg/L, STS, Fog): 0.3
Severity (Average Number of Lesions) (Botrytis cinerea [4]; Petals, 0.04 mg/L, STS, Volatile): 0.5
Severity (Average Number of Lesions) (Botrytis cinerea [4]; Petals, 0.2 mg/L, Non-STS, Fog): 0
Severity (Average Number of Lesions) (Botrytis cinerea [4]; Petals, 0.2 mg/L, Non-STS, Volatile): 1.8
Severity (Average Number of Lesions) (Botrytis cinerea [4]; Petals, 0.2 mg/L, STS, Fog): 0
Severity (Average Number of Lesions) (Botrytis cinerea [4]; Petals, 0.2 mg/L, STS, Volatile): 0.1
Severity (Average Number of Lesions) (Botrytis cinerea [4]; Petals, 1 mg/L, Non-STS, Fog): 0
Severity (Average Number of Lesions) (Botrytis cinerea [4]; Petals, 1 mg/L, Non-STS, Volatile): 1.5
Severity (Average Number of Lesions) (Botrytis cinerea [4]; Petals, 1 mg/L, STS, Fog): 0
Severity (Average Number of Lesions) (Botrytis cinerea [4]; Petals, 1 mg/L, STS, Volatile): 0.1
Severity (Average Number of Lesions) (Botrytis cinerea [4]; Sepals, 0.04 mg/L, Non-STS, Fog): 0.3
Severity (Average Number of Lesions) (Botrytis cinerea [4]; Sepals, 0.04 mg/L, Non-STS, Volatile): 2.1
Severity (Average Number of Lesions) (Botrytis cinerea [4]; Sepals, 0.04 mg/L, STS, Fog): 0.6
Severity (Average Number of Lesions) (Botrytis cinerea [4]; Sepals, 0.04 mg/L, STS, Volatile): 1.1
Severity (Average Number of Lesions) (Botrytis cinerea [4]; Sepals, 0.2 mg/L, Non-STS, Fog): 0.04
Severity (Average Number of Lesions) (Botrytis cinerea [4]; Sepals, 0.2 mg/L, Non-STS, Volatile): 1.6
Severity (Average Number of Lesions) (Botrytis cinerea [4]; Sepals, 0.2 mg/L, STS, Fog): 0.1
Severity (Average Number of Lesions) (Botrytis cinerea [4]; Sepals, 0.2 mg/L, STS, Volatile): 0.3
Severity (Average Number of Lesions) (Botrytis cinerea [4]; Sepals, 1 mg/L, Non-STS, Fog): 0.04
Severity (Average Number of Lesions) (Botrytis cinerea [4]; Sepals, 1 mg/L, Non-STS, Volatile): 1
Severity (Average Number of Lesions) (Botrytis cinerea [4]; Sepals, 1 mg/L, STS, Fog): 0.04
Severity (Average Number of Lesions) (Botrytis cinerea [4]; Sepals, 1 mg/L, STS, Volatile): 0.2
